# Several values for one entry are separate records, joined by “and”; a condition that tells them apart may be missing. Equal values may be shown once.
# Assays:
# Assay type in all cases: cell-based
# Penicillium funiculosum [1] = assay: MIC and synergy of MIT/BIT (1:1) and IPBC in Sabouraud maltose broth, 72 h
# Method: (§1) In all the examples in which an active substance mixture of MIT and BIT as well as additionally a further active biocidal substance was used, the weight ratio of MIT to BIT was 1:1.
# (§2) The synergy index is calculated according to the method of F. C. Kull et al., Applied Microbiology, Vol. 9 (1961), p. 538. Here the synergy index is calculated using the following formula:
# (§3) Synergy index SI=Qa/QA+Qb/QB.
# The synergy of an active substance mixture that contains IPBC in addition to MIT and BIT, against the microorganism Penicillium funiculosum is shown as in Example 1.
# (§4) The test batches contained a Sabouraud maltose broth as a nutrient medium. The spore concentration was 10^6 per mL. The incubation time was 72 h at 25° C. Each sample was incubated on an incubation shaker at 120 rpm.
# Aspergillus niger [2] = assay: as above
# Method: as §1, §2, §3
# The synergy of an active substance mixture that contains 3-iodo-2-propinyl-N-butyl carbamate (IPBC) in addition to MIT and BIT, against the microorganism Aspergillus niger is shown as in Example 1.
# as §4
# [3] = tested on: standard bacterial inoculum; assay: Preservation of coating composition A, repeated bacterial inoculation, streak evaluation; design: key: 0: no growth; minimal growth up to 10 colonies; 2: slight growth up to 100 colonies; moderate growth up to 300 colonies; 4: uniform growth, single colonies still discernible; 5: strong growth, too many colonies to count, but not covering entire surface; 6: extensive growth, almost no individual colonies, total streak surface overgrown
# From the text: Biocide compositions according to the invention were incorporated into a coating composition A that is used for coating building facades. This coating composition is a plaster based on an aqueous polymer dispersion commercially available under the designation “Granol KR 3.0” (company Steinwerke Kupferdreh GmbH). The addition of the biocide composition of the invention served to preserve the coating composition before its use, i.e., while it was stored in its packing drums.
# (§5) The biocides shown in Table XI below were added respectively to 50 g of coating composition A. The stated amounts of biocide refer to the amount of coating composition A. In the MIT/BIT mixtures, the two biocides were present in a weight ratio of 1:1.
# (§6) Apart from a blank test without addition of biocide, 1 mL of a standard bacterial inoculum that contained the following bacterial strains was added to each sample of coating composition A:
# (§7) The cell density of the inoculum was 10^10 to 3·10^10 cells/mL, and the cell density of the samples was 2·10^8 to 6·10^8 cells/g. The samples were held at 30° C. for 7 days. Then a streak of each sample was produced on a nutrient agar plate, held at 30° C. for 48 h, and then evaluated for bacterial growth. The following evaluation scale was used:
# (§8) When the bacterial growth was evaluated as below 6, a second bacterial inoculum of the above-mentioned type was added to the corresponding original 50 g sample and it was again held at 30° C. for 7 days. Then a streak was again produced on a nutrient agar plate, which was again evaluated for its bacterial growth after a holding time of 48 h at 30° C.
# (§9) When the bacterial growth of the streak was evaluated as 6 for a sample, the testing of this sample was terminated. As long as a sample had not reached this number, a bacterial inoculum was again added in the above-mentioned manner and the sample was held and tested by means of a streak. This procedure was repeated as necessary, with a maximum of 4 bacterial inocula being added per sample.
# Klebsiella pneumoniae = assay: MIC and synergy of MIT and BIT in Müller-Hinton broth, 72 h; conditions: for growth of the microorganism: BIT 0 ppm, MIT ppm = row head c0; as to growth of the microorganism: key: growth of the microorganism took place (symbol '+'); or not (symbol '−')
# Method: as §2, §3
# The synergy of the two active substances MIT and BIT against the microorganism Klebsiella pneumoniae is shown as in example 1.
# (§10) The test batches again contained a Müller-Hinton broth as a nutrient medium. The cell density was 10^6 cells/mL. The incubation time was 72 h at 25° C. Each sample was incubated on an incubation shaker at 120 rpm.
# Pseudomonas aeruginosa = assay: MIC and synergy of MIT and BIT in Müller-Hinton broth, 48 h
# Method: as §2, §3
# The synergy of the two active substances MIT and BIT against the microorganism Pseudomonas aeruginosa is shown as in Example 1.
# (§11) The test batches again contained a Müller-Hinton broth as a nutrient medium. The cell density was 10^6 cells/mL. The incubation time was 48 h at 25° C. Each sample was incubated on an incubation shaker at 120 rpm.
# Escherichia coli = assay: MIC and synergy of MIT and BIT in Müller-Hinton broth, 72 h; conditions: for growth of the microorganism: BIT 0 ppm, MIT ppm = row head c0; as to growth of the microorganism: key: growth of the microorganism took place (symbol '+'); or not (symbol '−')
# Method: For this purpose, aqueous mixtures were produced with various concentrations of 2-methylisothiazolin-3-one (MIT) and 1,2-benzisothiazolin-3-one (BIT) and the activity of these mixtures on Escherichia coli (International Mycological Institute, Strain No. IMI 362054) was tested.
# In addition to the biocide component and water, the aqueous mixtures contained a nutrient medium, namely a Müller-Hinton broth (commercial product “Merck No. 10393”). The cell density of Escherichia coli was 10^6 cells/mL. The incubation time was 72 h at 25° C. Each sample was incubated on an incubation shaker at 120 rpm.
# as §2, §3
# When the synergy index has the value 1, this means that there is an addition of the activity of the two biocides. When the synergy index has a value of less than 1, this means that a synergy of the two biocides exists.
# Penicillium funiculosum [4] = assay: MIC and synergy of MIT and BIT in Sabouraud maltose broth, 96 h
# Method: as §2, §3
# The synergy of the two active substances MIT and BIT against the microorganism Penicillium funiculosum is shown as in Example 1.
# (§12) The test batches contained a Sabouraud maltose broth as a nutrient medium. The spore concentration was 10^6 per mL. The incubation time was 96 h at 25° C. Each sample was incubated on an incubation shaker at 120 rpm.
# Pseudomonas stutzeri = assay: MIC and synergy of MIT and BIT in Müller-Hinton broth, 72 h; conditions: for growth of the microorganism: BIT 0 ppm, MIT ppm = row head c0; as to growth of the microorganism: key: growth of the microorganism took place (symbol '+'); or not (symbol '−')
# Method: as §2, §3
# The synergy of MIT and BIT against the microorganism Pseudomonas stutzeri is shown as in Example 1.
# as §10
# [5] = tested on: standard bacterial inoculum; assay: Preservation of coating composition B, repeated bacterial inoculation, streak evaluation; design: key to Bacterial growth (7 days + 48 h after 4th inoculation): 0: no growth; minimal growth up to 10 colonies; 2: slight growth up to 100 colonies; moderate growth up to 300 colonies; 4: uniform growth, single colonies still discernible; 5: strong growth, too many colonies to count, but not covering entire surface; 6: extensive growth, almost no individual colonies, total streak surface overgrown
# Method: as §5, §6, §7, §8, §9
# Example 9 was repeated, but using coating composition B instead of coating composition A.
# Coating composition B is a particularly low-emission plaster based on a polymer dispersion commercially available under the designation “Granol KR 3.0 LF” (company Steinwerke Kupferdreh GmbH).
# Pseudomonas putida = assay: MIC and synergy of MIT and BIT in Müller-Hinton broth, 48 h; as to growth of the microorganism: key: growth of the microorganism took place (symbol '+'); or not (symbol '−')
# Method: as §2, §3
# The synergy of the two active substances MIT and BIT against the microorganism Pseudomonas putida is shown as in Example 1.
# as §11
# Aspergillus niger [6] = assay: MIC and synergy of MIT and BIT in Sabouraud maltose broth, 96 h
# Method: as §2, §3
# The synergy of the two active substances MIT and BIT against the microorganism Aspergillus niger is shown as in Example 1.
# as §12
# [7] = MIT share of the BIT/MIT mixture at MIC, 72 h
# [8] = MIT share of the BIT/MIT mixture at MIC, 48 h
# [9] = share of the BIT/MIT mixture at MIC, 96 h
smiles,measurement,setting,value
"CCCCNC(=O)OCC#CI [IPBC, 3-iodo-2-propinyl-N-butyl carbamate]",MIC at IPBC concentration Qb,"Penicillium funiculosum [1]; IPBC share at the MIC, Penicillium funiculosum, 72 h",0.75 ppm
same,Qb/QB,"Penicillium funiculosum [1]; Penicillium funiculosum, 72 h",1.00
same,Synergy index Qa/QA + Qb/QB,"Penicillium funiculosum [1]; Penicillium funiculosum, 72 h",1.00
same,Total concentration MIT/BIT + IPBC,"Penicillium funiculosum [1]; at the MIC, Penicillium funiculosum, 72 h",0.75 ppm
same,MIC value,"Penicillium funiculosum [1]; used alone, 72 h at 25° C.",0.75 ppm
same,Qb/QB,"Aspergillus niger [2]; Aspergillus niger, 72 h",1.00
same,Synergy index Qa/QA + Qb/QB,"Aspergillus niger [2]; Aspergillus niger, 72 h",1.00
same,MIC at IPBC concentration Qb,"Aspergillus niger [2]; IPBC share at the MIC, Aspergillus niger, 72 h",2.5 ppm
same,Total concentration BIT/MIT + IPBC Qa + Qb,"Aspergillus niger [2]; at the MIC, Aspergillus niger, 72 h",2.5 ppm
same,MIC value,"Aspergillus niger [2]; used alone, 72 h at 25° C.",2.5 ppm
"Cn1sccc1=O [MIT, 2-methylisothiazolin-3-one]",Bacterial growth (7 days + 48 h after 4th inoculation),[3]; biocide 0.005% by wt,full bacterial growth was reached only after four inoculations and 6
same,Bacterial growth (7 days + 48 h after 4th inoculation),[3]; biocide 0.01% by wt,5
same,Bacterial growth (7 days + 48 h after 4th inoculation),[3]; biocide 0.015% by wt,5
same,Bacterial growth (7 days + 48 h after 4th inoculation),[3]; biocide 0.02% by wt,4
same,Bacterial growth (7 days + 48 h after 4th inoculation),[3]; biocide 0.03% by wt,no bacterial growth found even after four inoculations and 0
same,MIC at Total concentration BIT + MIT Qa + Qb,Klebsiella pneumoniae; 72 h,20 ppm
same,Qb/QB,Klebsiella pneumoniae; 72 h,1.00
same,Synergy index Qa/QA + Qb/QB,Klebsiella pneumoniae; 72 h,1.00
same,growth of the microorganism,"Klebsiella pneumoniae; 72 h, MIT 12.5 ppm",+
same,growth of the microorganism,"Klebsiella pneumoniae; 72 h, MIT 25 ppm",−
same,MIC at MIT concentration Qb,Klebsiella pneumoniae; [7],20 ppm
same,MIC value,"Klebsiella pneumoniae; used alone, 72 h at 25° C.",20 ppm
same,MIC at Total concentration BIT + MIT Qa + Qb,Pseudomonas aeruginosa; 48 h,30 ppm
same,Qb/QB,Pseudomonas aeruginosa; 48 h,1.00
same,Synergy index Qa/QA + Qb/QB,Pseudomonas aeruginosa; 48 h,1.00
same,MIC at MIT concentration Qb,Pseudomonas aeruginosa; [8],30 ppm
same,MIC value,"Pseudomonas aeruginosa; used alone, 48 h at 25° C.",30 ppm
same,MIC at Total concentration BIT + MIT Qa + Qb,Escherichia coli; 72 h,17.5 ppm
same,Qb/QB,Escherichia coli; 72 h,1.00
same,Synergy index Qa/QA + Qb/QB,"Escherichia coli; 72 h, method of Kull",1.00
same,growth of the microorganism,"Escherichia coli; 72 h, MIT 10 ppm",+
same,growth of the microorganism,"Escherichia coli; 72 h, MIT 25 ppm",−
same,MIC at MIT concentration Qb,Escherichia coli; [7],17.5 ppm
same,MIC value,"Escherichia coli; used alone, 72 h at 25° C.",17.5 ppm
same,MIC at Total concentration BIT + MIT Qa + Qb,Penicillium funiculosum [4]; 96 h,40 ppm
same,Qb/QB,Penicillium funiculosum [4]; 96 h,1.00
same,Synergy index Qa/QA + Qb/QB,Penicillium funiculosum [4]; 96 h,1.00
same,MIC at MIT concentration Qb,Penicillium funiculosum [4]; [9],40 ppm
same,MIC value,"Penicillium funiculosum [4]; used alone, 96 h at 25° C.",200 ppm
same,MIC at Total concentration BIT + MIT Qa + Qb,Pseudomonas stutzeri; 72 h,12.5 ppm
same,Qb/QB,Pseudomonas stutzeri; 72 h,1.00
same,Synergy index Qa/QA + Qb/QB,Pseudomonas stutzeri; 72 h,1.00
same,growth of the microorganism,"Pseudomonas stutzeri; 72 h, MIT 10 ppm",+
same,growth of the microorganism,"Pseudomonas stutzeri; 72 h, MIT 15 ppm",−
same,MIC at MIT concentration Qb,Pseudomonas stutzeri; [7],12.5 ppm
same,MIC value,"Pseudomonas stutzeri; used alone, 72 h at 25° C.",12.5 ppm
same,Bacterial growth (7 days + 48 h after 4th inoculation),[5]; biocide 0.005% by wt,4
same,Bacterial growth (7 days + 48 h after 4th inoculation),[5]; biocide 0.01% by wt,1 (minimal growth up to 10 colonies)
same,Bacterial growth (7 days + 48 h after 4th inoculation),[5]; biocide 0.015% by wt,1 (minimal growth up to 10 colonies)
same,Bacterial growth (7 days + 48 h after 4th inoculation),[5]; biocide 0.02% by wt,prevented completely and 0
same,Bacterial growth (7 days + 48 h after 4th inoculation),[5]; biocide 0.03% by wt,prevented completely and 0
same,MIC at Total concentration BIT + MIT Qa + Qb,Pseudomonas putida; 48 h,12.5 ppm
same,Qb/QB,Pseudomonas putida; 48 h,1.00
same,Synergy index Qa/QA + Qb/QB,Pseudomonas putida; 48 h,1.00
same,growth of the microorganism,"Pseudomonas putida; BIT 0 ppm, MIT ppm = row head c0, 48 h",+ and −
same,MIC at MIT concentration Qb,Pseudomonas putida; [8],12.5 ppm
same,MIC value,"Pseudomonas putida; used alone, 48 h at 25° C.",12.5 ppm
same,MIC at Total concentration BIT + MIT Qa + Qb,Aspergillus niger [6]; 96 h,100 ppm
same,Qb/QB,Aspergillus niger [6]; 96 h,1.00
same,Synergy index Qa/QA + Qb/QB,Aspergillus niger [6]; 96 h,1.00
same,MIC at MIT concentration Qb,Aspergillus niger [6]; [9],100 ppm
same,MIC value,"Aspergillus niger [6]; used alone, 96 h at 25° C.",750 ppm
